Assay results: paper PMC10924921, “Mi-2β promotes immune evasion in melanoma by activating EZH2 methylation” (Nature Communications, 2024)

Legend:
[1] = tested on: BRafV600E/Ptennull melanoma cells with or without Mi-2β; assay: CCK-8 proliferation after Braf inhibitor; assay type: cell-based, mouse; conditions: 10 μM, 24 h
Procedure: To test whether Mi-2β deficiency affects the sensitivity of tumor cells to Braf inhibitors, melanoma cells were isolated from Tyr::CreER;BRaf^CA;Pten^lox/lox and Tyr::CreER;BRaf^CA;Pten^lox/lox; Mi-2β^lox/lox mice and a cell proliferation assay was performed. BRAF mutation and Mi-2β-depleted melanoma cells or BRAF mutation melanoma cells (5 × 10^3 cells/100 μl) were cultured with 10 μM PLX4032 (Selleck, China) for 24 h and cell proliferation of melanoma cells were determined using the CCK-8 assay.
Supplementary Figure 2. […] Scale bar=200 µm. b Tumor-infiltrating lymphocytes were assayed by flow cytometry. c Treg cells within CD45+ T cells in TILs were assayed and quantified by flow cytometry.
(n=5). d Melanomas isolated from BRafV600E/Ptennull mice and BRafV600E/Ptennull /Mi-2βnull mice were processed for immunohistochemistry staining to detect the number of CD8+ T cells. […] Melanoma cells isolated from Tyr::CreER;BRafCA;Ptenlox/lox and Tyr::CreER;BRafCA;Ptenlox/lox;Mi-2βlox/lox mice were treated with PLX4032 (10μM) for 24 hours and cell proliferation was determined by CCK-8 assay (n=6). c, e, f: Values represent mean ± SD. […]

melanoma = conditions: cited from earlier work
[2] = tested on: PC3 prostate cancer cells; design: method as in Shubhada Sharma, et al., Biochemistry 2013; conditions: ref Shubhada Sharma, et al., Biochemistry 2013; read-out: IC50, cytotoxicity; cited from earlier work
[3] = target: recombinant purified human Mi-2β protein (Homo sapiens, UniProt Q14839); assay: FRET-based nucleosome repositioning assay (EpiDyne-FRET); conditions: read-out: apparent ATP Km; ATP titration 0.1 to 300 µM, 12.5 nM Mi-2β, 15 minutes
Sequence of recombinant purified human Mi-2β protein (Q14839 whole entry): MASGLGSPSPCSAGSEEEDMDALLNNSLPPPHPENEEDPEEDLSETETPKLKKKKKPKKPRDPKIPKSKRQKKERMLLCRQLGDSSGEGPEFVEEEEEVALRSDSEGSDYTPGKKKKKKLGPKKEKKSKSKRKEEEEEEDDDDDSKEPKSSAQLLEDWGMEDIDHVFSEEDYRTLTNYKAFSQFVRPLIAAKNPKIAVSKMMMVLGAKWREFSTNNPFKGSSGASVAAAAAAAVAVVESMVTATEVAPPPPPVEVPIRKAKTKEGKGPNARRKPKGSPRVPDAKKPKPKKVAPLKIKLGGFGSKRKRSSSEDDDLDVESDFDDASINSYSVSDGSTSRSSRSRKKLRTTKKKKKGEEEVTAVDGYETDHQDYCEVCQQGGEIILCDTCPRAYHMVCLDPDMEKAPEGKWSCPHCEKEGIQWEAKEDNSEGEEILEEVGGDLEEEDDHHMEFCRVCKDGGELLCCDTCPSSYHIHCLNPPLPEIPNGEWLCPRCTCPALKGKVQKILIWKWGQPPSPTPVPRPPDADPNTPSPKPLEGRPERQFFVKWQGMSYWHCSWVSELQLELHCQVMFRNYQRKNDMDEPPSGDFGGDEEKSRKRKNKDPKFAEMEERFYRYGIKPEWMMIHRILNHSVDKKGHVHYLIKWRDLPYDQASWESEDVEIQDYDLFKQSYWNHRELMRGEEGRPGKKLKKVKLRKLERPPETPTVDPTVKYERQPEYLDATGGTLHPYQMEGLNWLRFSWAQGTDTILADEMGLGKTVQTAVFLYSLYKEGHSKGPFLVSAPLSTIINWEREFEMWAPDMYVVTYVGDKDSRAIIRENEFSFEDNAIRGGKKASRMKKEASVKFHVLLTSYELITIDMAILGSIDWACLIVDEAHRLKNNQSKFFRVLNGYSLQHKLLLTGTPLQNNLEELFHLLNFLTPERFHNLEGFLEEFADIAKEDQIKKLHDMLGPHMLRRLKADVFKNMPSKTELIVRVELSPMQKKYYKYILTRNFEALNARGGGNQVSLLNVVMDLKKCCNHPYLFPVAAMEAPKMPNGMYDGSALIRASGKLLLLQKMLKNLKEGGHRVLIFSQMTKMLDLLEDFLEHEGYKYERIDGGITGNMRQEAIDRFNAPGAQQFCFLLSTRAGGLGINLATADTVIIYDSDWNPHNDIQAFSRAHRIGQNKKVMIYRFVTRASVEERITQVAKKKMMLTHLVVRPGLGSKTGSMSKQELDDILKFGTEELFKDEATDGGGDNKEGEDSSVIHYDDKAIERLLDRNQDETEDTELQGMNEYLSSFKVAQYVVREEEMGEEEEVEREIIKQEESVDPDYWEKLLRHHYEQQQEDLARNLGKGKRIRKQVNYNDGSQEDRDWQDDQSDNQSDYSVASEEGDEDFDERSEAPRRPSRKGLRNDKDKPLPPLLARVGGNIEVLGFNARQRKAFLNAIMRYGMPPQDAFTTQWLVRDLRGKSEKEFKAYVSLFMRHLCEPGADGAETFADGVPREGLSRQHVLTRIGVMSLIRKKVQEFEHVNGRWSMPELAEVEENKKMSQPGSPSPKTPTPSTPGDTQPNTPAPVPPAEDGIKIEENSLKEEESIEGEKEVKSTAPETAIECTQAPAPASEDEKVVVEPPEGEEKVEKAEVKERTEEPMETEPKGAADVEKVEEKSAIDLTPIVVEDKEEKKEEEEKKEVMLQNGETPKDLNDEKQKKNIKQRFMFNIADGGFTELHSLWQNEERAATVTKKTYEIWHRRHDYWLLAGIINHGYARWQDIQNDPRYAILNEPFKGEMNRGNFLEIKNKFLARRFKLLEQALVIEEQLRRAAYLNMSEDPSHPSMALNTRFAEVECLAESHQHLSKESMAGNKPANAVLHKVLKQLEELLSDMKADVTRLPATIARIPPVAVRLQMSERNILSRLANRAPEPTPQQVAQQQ

CCCS(=O)(=O)Nc1ccc(F)c(C(=O)c2c[nH]c3ncc(-c4ccc(Cl)cc4)cc23)c1F [PLX4032]
cell survival in melanoma cells with or without Mi-2β expression [1]: no difference in cell survival

ipilimumab: anti-CTLA-4 antibody
melanoma patients that respond (melanoma): 20%

CC(=O)O[C@H]1C(=O)[C@@]2(C)[C@H]([C@H](OC(=O)c3ccccc3)[C@]3(O)C[C@H](OC(=O)[C@H](O)[C@@H](NC(=O)c4ccccc4)c4ccccc4)C(C)=C1C3(C)C)[C@]1(OC(C)=O)CO[C@@H]1C[C@@H]2O [paclitaxel]
IC50 [2]: 1.41 nM

pembrolizumab: anti-PD-1 antibody
melanoma patients that respond (melanoma): 33%

Nc1ncnc2c1ncn2[C@@H]1O[C@H](COP(=O)(O)OP(=O)(O)OP(=O)(O)O)[C@@H](O)[C@H]1O [ATP]
Km [3]: 11.5 µM
